What follows are compounds tested against T1, Human DGAT1 (Homo sapiens, UniProt O75907) (assay: DGAT inhibitory activity: [14C]-triglyceride synthesis by DGAT1 high expression Sf9 microsome). Conditions: Table 1, 25 μM dioleoylglycerol, 25 μM [14C]-Oleoyl-CoA, 32° C., 15 min, read-out: DGAT inhibitory activity (according to IC50).
T1 construct: my translation of the primer: M-G-DYKDDDD-GDRGSSRRR) (N); made in house; host or cells: Sf9 insect cells (recombinant baculovirus BAC-DGAT1, pFASTBAC1); microsome fraction
T1 sequence (O75907 1-488): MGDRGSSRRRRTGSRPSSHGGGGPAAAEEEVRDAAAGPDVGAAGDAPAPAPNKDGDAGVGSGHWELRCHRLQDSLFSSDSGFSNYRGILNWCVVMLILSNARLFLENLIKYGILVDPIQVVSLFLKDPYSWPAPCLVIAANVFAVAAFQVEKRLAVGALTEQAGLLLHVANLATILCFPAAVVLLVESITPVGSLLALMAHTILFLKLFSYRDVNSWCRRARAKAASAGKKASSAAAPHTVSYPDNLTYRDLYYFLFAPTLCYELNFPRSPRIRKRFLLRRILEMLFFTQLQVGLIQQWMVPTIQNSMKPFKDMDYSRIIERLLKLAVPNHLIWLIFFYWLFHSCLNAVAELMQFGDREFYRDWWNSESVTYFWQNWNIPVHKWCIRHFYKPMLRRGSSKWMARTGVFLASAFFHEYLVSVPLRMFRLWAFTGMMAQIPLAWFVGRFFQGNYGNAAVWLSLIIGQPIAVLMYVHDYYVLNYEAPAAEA
Type: biochemical
Method: The primer base sequence is shown below.
The PCR reaction was conducted using a KOD-plus kit (TOYOBO). The obtained PCR product was electrophoresed on agarose gel (1%), the DNA fragment amplified by PCR was recovered from the gel, and then digested with restriction enzymes EcoRI and SpeI. […] Furthermore, using BAC-TO-BAC Baculovirus Expression System (Invitrogen), recombinant baculovirus BAC-DGAT1 was prepared.
SF9 cells were sown at 1×10^6 cells/ml on Sf-900II SEM medium (1 L, Invitrogen) containing 10% fetal calf serum (Trace), 50 mg/L gentamicin (Invitrogen) and 0.1% Pluronic F-68 (Invitrogen), and shaking culture was performed using a 2 L volume Erlenmeyer at 27° C., 100 rpm. After culturing for 24 hr, recombinant baculovirus BAC-DGAT1 (6.7 mL) was added, and the mixture was further cultured for 3 days. The culture medium was centrifuged at 2,000 rpm for 5 min to give virus-infected cells. The infected cells were washed with a phosphate buffered saline (Invitrogen), centrifuged under the same conditions, and the cells were preserved at −80° C. The cryopreserved cells were thawed in ice, suspended in buffer A (50 mM Tris buffer (30 mL, pH 7.4) containing 20% glycerol, 0.15 M NaCl) supplemented with Complete Protease Inhibitor (Boehringer), and ruptured 3 times with a Polytron homogenizer (Kinematica) at 20,000 rpm for 30 sec. The Sf9 microsome fractions were obtained by a conventional method and cryopreserved at −80° C. as a DGAT1 high expression Sf9 microsome.
As a DGAT1 reaction buffer, a solution having a composition of 100 mM Tris-HCl (pH 7.5), 250 mM sucrose, 150 mM MgCl2, 0.01% bovine serum albumin (BSA) was used. […] A mixture of 300 μL of chloroform:methanol (=1:2) was added to the reaction mixture to quench the reaction. The reaction mixture was sufficiently mixed and saline (200 μL) was added to partition the mixture between a chloroform layer (lower layer) and an aqueous layer (upper layer). The chloroform layer (50 μL) was spotted on a thin layer chromatography silica gel plate (TLC plate, Merck) and developed with a solvent (n-hexane:diethyl ether:ethyl acetate:acetic acid=74:15:15:1). The developed TLC plate was dried, contacted with a BAS imaging plate (manufactured by FUJIFILM) and measured with BAS2500 (manufactured by FUJIFILM) 16 hr later to numerically show the amount of [^14C]-triglyceride (TG amount) produced during the reaction. The inhibitory rate was calculated by the following formula:
Inhibitory rate (%)=(1−(TG amount in the case with addition of test compound−blank TG amount)/(control TG amount−blank TG amount))×100
The count of the triglyceride produced in the solution reacted without addition of the test compound was used as a “control TG amount”, and the count of the triglyceride produced in the solution reacted without addition of the test compound and DGAT1 high expression Sf9 microsome was used as a “blank TG amount”.
For `CCOc1ccc(C(=O)NCCNC(=O)c2cc(-c3ccccc3)n(Cc3ccccc3)c2C)cc1` [Example 63, 1-benzyl-N-{2-[(4-ethoxybenzoyl)amino]ethyl}-2-methyl-5-phenyl-1H-pyrrole-3-carboxamide], the IC50 was 50 to 500 nM.
`CCOc1ccc(C(=O)CCC(=O)Nc2cc(-c3ccccc3)c(Cc3ccc(Br)cc3)s2)cc1OCC` [Example 47, N-[5-(4-bromobenzyl)-4-phenyl-2-thienyl]-4-(3,4-diethoxyphenyl)-4-oxobutanamide] gave an IC50 of 10 to 50 nM.
With `CCOc1ccc(C(=O)CCC(=O)Nc2cnn(Cc3ccccc3)c2-c2ccccc2)cc1OCC` [Example 21, N-(1-benzyl-5-phenyl-1H-pyrazol-4-yl)-4-(3,4-diethoxyphenyl)-4-oxobutanamide] the IC50 was 500 to 10000 nM.
Work on `CCOc1ccc(C(=O)CCC(=O)Nc2cc(-c3ccccc3)nc(-c3ccccc3)c2)cc1OCC` [Example 12, 4-(3,4-diethoxyphenyl)-N-(2,6-diphenylpyridin-4-yl)-4-oxobutanamide] yielded an IC50 of 500 to 10000 nM.
In the case of `O=C(O)Cc1ccc(C(=O)CCC(=O)Nc2nc(-c3ccccc3)c(Cc3ccccc3)s2)cc1` [Example 35], the IC50 is reported as 500 to 10000 nM.

Same assay, conditions: Table 2, 25 μM dioleoylglycerol, 25 μM [14C]-Oleoyl-CoA, 32° C., 15 min, read-out: DGAT inhibitory activity (according to IC50)
`CCOc1ccc(C(=O)CCC(=O)Nc2cc(-c3cccc(CO)c3)cc(-c3ccccc3)n2)cc1OCC` [Example 136, 4-(3,4-diethoxyphenyl)-N-{4-[3-(hydroxymethyl)phenyl]-6-phenylpyridin-2-yl}-4-oxobutanamide] showed an IC50 of 50 to 500 nM.
In the case of `CCOc1ccc(C(=O)CCC(=O)Nc2cc(-c3ccccc3CO)cc(-c3ccccc3)n2)cc1OCC` [Example 147, 4-(3,4-diethoxyphenyl)-N-{4-[2-(hydroxymethyl)phenyl]-6-phenylpyridin-2-yl}-4-oxobutanamide], the IC50 is reported as ≤ 10 nM.
`CCOc1ccc(C(=O)CCC(=O)Nc2cc(-c3cccc(C#N)c3)cc(-c3ccccc3)n2)cc1OCC` [Example 132, N-[4-(3-cyanophenyl)-6-phenylpyridin-2-yl]-4-(3,4-diethoxyphenyl)-4-oxobutanamide] showed an IC50 of 50 to 500 nM.
In the case of `CCOc1ccc(C(=O)CCC(=O)Nc2cc(-c3ccccn3)c3ccccc3n2)cc1OCC` [Example 89, 4-(3,4-diethoxyphenyl)-4-oxo-N-[4-(pyridin-2-yl)quinolin-2-yl]butanamide], the IC50 is reported as 50 to 500 nM.
`CCOc1ccc(C(=O)CCC(=O)Nc2cc(-c3ccccc3)c(Cc3ccccc3)s2)cc1Cl` [Example 70, N-(5-benzyl-4-phenyl-2-thienyl)-4-(3-chloro-4-ethoxyphenyl)-4-oxobutanamide] gave an IC50 of 50 to 500 nM.
`O=C(CCC(=O)c1ccc2c(c1)CCO2)Nc1cc(-c2cccc(CO)c2)cc(-c2ccccc2)n1` [Example 167, 4-(2,3-dihydro-1-benzofuran-5-yl)-N-{4-[3-(hydroxymethyl)phenyl]-6-phenylpyridin-2-yl}-4-oxobutanamide] showed an IC50 of 50 to 500 nM.
Work on `CCCCOc1cccc(-c2cc(NC(=O)CCC(=O)c3ccc4c(c3)CCO4)nc(-c3ccccc3)c2)c1` [Example 166, N-[4-(3-butoxyphenyl)-6-phenylpyridin-2-yl]-4-(2,3-dihydro-1-benzofuran-5-yl)-4-oxobutanamide] yielded an IC50 of 500 to 10000 nM.
Compound `CCOc1ccc(C(=O)CCC(=O)Nc2cc(-c3ccncc3)c3ccccc3n2)cc1OCC` [Example 91, 4-(3,4-diethoxyphenyl)-4-oxo-N-[4-(pyridin-4-yl)quinolin-2-yl]butanamide] has an IC50 of 50 to 500 nM.
For `COc1ccc(C(=O)CCC(=O)Nc2nc(-c3ccccc3)c(Cc3ccccc3)s2)cc1OC` [Example 71, N-(5-benzyl-4-phenyl-1,3-thiazol-2-yl)-4-(3,4-dimethoxyphenyl)-4-oxobutanamide], the IC50 was ≤ 10 nM.
For `CCOc1ccc(C(=O)CCC(=O)Nc2cc(-c3cccc(C(=O)OC)c3)cc(-c3ccccc3)n2)cc1OCC` [Example 139, methyl 3-(2-{[4-(3,4-diethoxyphenyl)-4-oxobutanoyl]amino}-6-phenylpyridin-4-yl)benzoate], the IC50 was 500 to 10000 nM.
`CCOc1ccc(C(=O)CCC(=O)Nc2cc(-c3ccc(C#N)cc3)cc(-c3ccccc3)n2)cc1OCC` [Example 122, N-[4-(4-cyanophenyl)-6-phenylpyridin-2-yl]-4-(3,4-diethoxyphenyl)-4-oxobutanamide] was tested, and the IC50 was 50 to 500 nM.
Work on `CCOc1ccc(C(=O)CCC(=O)Nc2cc(-c3cccc(CCC(=O)O)c3)cc(-c3ccccc3)n2)cc1OCC` [Example 141, 3-[3-(2-{[4-(3,4-diethoxyphenyl)-4-oxobutanoyl]amino}-6-phenylpyridin-4-yl)phenyl]propanoic acid] yielded an IC50 of 500 to 10000 nM.
`CCOc1ccc(C(=O)CCC(=O)Nc2cc(-c3ccc(OCCCN(C)C)cc3)c3ccccc3n2)cc1OCC` [Example 93, 4-(3,4-diethoxyphenyl)-N-(4-{4-[3-(dimethylamino)propoxy]phenyl}quinolin-2-yl)-4-oxobutanamide] showed an IC50 of 50 to 500 nM.
`CCOc1ccc(C(=O)CCC(=O)Nc2cc(C(C)(C)C)nn2-c2ccc(C(C)(C)C)cc2)cc1OCC` [Example 100, N-[3-tert-butyl-1-(4-tert-butylphenyl)-1H-pyrazol-5-yl]-4-(3,4-diethoxyphenyl)-4-oxobutanamide] showed an IC50 of 500 to 10000 nM.
For `CCOc1ccc(C(=O)CCC(=O)Nc2cc(-c3ccccc3)cc(-c3ccccc3)n2)cc1` [Example 102, N-(4,6-diphenylpyridin-2-yl)-4-(4-ethoxyphenyl)-4-oxobutanamide], the IC50 was 50 to 500 nM.
`CCCCc1ccc(C(=O)c2sc(NC(=O)CCC(=O)c3cc(OCC)c(OCC)cc3C)nc2-c2ccccc2)cc1` [Example 69, N-[5-(4-butylbenzoyl)-4-phenyl-1,3-thiazol-2-yl]-4-(4,5-diethoxy-2-methylphenyl)-4-oxobutanamide] gave an IC50 of 50 to 500 nM.
Compound `CCOc1ccc(C(=O)CCC(=O)Nc2cc(-c3ccoc3)cc(-c3ccccc3)n2)cc1OCC` [Example 117, 4-(3,4-diethoxyphenyl)-N-[4-(3-furyl)-6-phenylpyridin-2-yl]-4-oxobutanamide] has an IC50 of 50 to 500 nM.
For `CCOc1ccc(C(=O)CCC(=O)Nc2cc(-c3ccc4[nH]ccc4c3)cc(-c3ccccc3)n2)cc1OCC` [Example 121, 4-(3,4-diethoxyphenyl)-N-[4-(1H-indol-5-yl)-6-phenylpyridin-2-yl]-4-oxobutanamide], the IC50 was ≤ 10 nM.
With `CCOc1ccc(C(=O)CCC(=O)Nc2cc(-c3ccccc3)c3ccccc3n2)cc1OCC` [Example 74, 4-(3,4-diethoxyphenyl)-4-oxo-N-(4-phenylquinolin-2-yl)butanamide] the IC50 was ≤ 10 nM.
In the case of `CCOc1ccc(C(=O)CCC(=O)Nc2cc(-c3ccc(N4CCOCC4)cc3)cc(-c3ccccc3)n2)cc1OCC` [Example 129, 4-(3,4-diethoxyphenyl)-N-[4-(4-(morpholin-4-yl)phenyl)-6-phenylpyridin-2-yl]-4-oxobutanamide], the IC50 is reported as 500 to 10000 nM.
`CCOc1ccc(C(=O)CCC(=O)Nc2cc(-c3ccccc3)c3ccccc3n2)cc1` [Example 79, 4-(4-ethoxyphenyl)-4-oxo-N-(4-phenylquinolin-2-yl)butanamide] gave an IC50 of 10 to 50 nM.
With `O=C(CCC(=O)c1ccc2c(c1)CCO2)Nc1cc(-c2ccoc2)cc(-c2ccccc2)n1` [Example 115, 4-(2,3-dihydro-1-benzofuran-5-yl)-N-[4-(3-furyl)-6-phenylpyridin-2-yl]-4-oxobutanamide] the IC50 was 50 to 500 nM.

— patent US20090048258A1, “Amide Compound” (priority 2005, published 2009)
